From article PMC5789271, “Absorption and Metabolism of Phenolics from Digests of Polyphenol-Rich Potato Extracts Using the Caco-2/HepG2 Co-Culture System” (Foods, 2018)
Where “and” joins values, the source holds several entries; their conditions need not be identical. Equal entries are not always repeated. Entries after “also recorded” stand apart in the source; their conditions may differ.

Key:
[1] = tested on: human intestinal microbial ecosystem (colonic microbiota); assay: Simulated digestion of PRPE in the dynamic multi-reactor GI model, LC-MS phenolic profile of pooled colonic digesta; format: in vitro ADME; details: pooled digesta of three colonic vessels, 24 h; note: key: (+) present; (T) trace amount
Source text: PRPE was subjected to in vitro digestion by the GI model as described previously in detail. Briefly, the model was composed of five double-jacketed vessels representing the stomach, the small intestine, the ascending colon, the transverse colon, and the descending colon. The model was fully computer controlled. The pH was automatically controlled by addition of 0.2 M HCl and 0.5 M NaOH solution upon a change in pH in the vessels to simulate the in vivo conditions in the different segments of the human gastrointestinal tract. The temperature was kept at 37 °C and anaerobic conditions were maintained in the fermentation vessels by flushing nitrogen gas for 20 min into the airspace every day. The experiment was started after a 2-week stabilization period in which fecal slurry, obtained from five healthy volunteers with no history of GI disease or antibiotic use in the previous six months, were inoculated into the last three vessels. After the 2-week stabilization period, 130 g PRPE was dissolved in the GI food mixture, which was composed of the following ingredients: arabinolactan, pectin, xylan, starch, glucose, yeast extracts, peptone, mucin, and cysteine powders—a composition previously developed by Molly et al. (1993). The GI food mixture was stored at 4 °C during the study. Samples were collected from all three colonic vessels before and 24 h after addition of PRPE to the GI digestion model. Each digestion was carried out in triplicate. Samples were centrifuged at 1000× g and stored at −80 °C for later analysis by liquid chromatography–mass spectrometry (LC-MS) and for the cell culture experiments.
The samples that were collected from the last three colonic vessels of the gut model after 24 h digestion were pooled after each experiment and prepared according to the method described previously. The samples were centrifuged at 36,000× g, 4 °C for 2 h. The supernatant was collected and the pH was neutralized to pH 7 before being filter sterilized with a 25 mm syringe filter (0.2 µm, MCE, Fisher Scientific, Ottawa, ON, Canada) and stored at −80 °C until used for the Caco-2/HepG2 cell experiments. Samples collected before the addition of PRPE were considered as the controls.
This condition was maintained for 3 min.

Caco-2 cells = assay: Caco-2 cell transport bioassay (Caco-2/HepG2 co-culture, 2 h); format: in vitro ADME, human; design: Percentage of Control Value at 0 h, A (2 h) / Percentage of Control Value at 0 h, B (2 h): concentration or dose not given beside the values; details: for Percentage of Digesta Value, A (2 h) / Percentage of Digesta Value, B (2 h): PRPE digesta 10% (v/v); for Percentage of Digesta Value, A (2 h) / Percentage of Control Value at 0 h, A (2 h): apical chamber after 2 h; for Percentage of Digesta Value, B (2 h) / Percentage of Control Value at 0 h, B (2 h): basolateral chamber after 2 h; for Percentage of Control Value at 0 h, A (2 h) / Percentage of Control Value at 0 h, B (2 h): control digesta
HepG2 cells = assay: HepG2 cell metabolism bioassay (basolateral chamber, further 3 h); details: for Fold increase of basolateral concentration after HepG2 incubation: 3 h with HepG2 cells, relative to initial basolateral value
Protocol: Cells were incubated at 37 °C with 5% CO2 and 90% humidity and were monitored daily.
During this time, the medium was changed every other day. Before starting the treatments, the integrity of the monolayer was checked by measuring the transepithelial electrical resistance (TEER). […] Caco-2 monolayers having reached a TEER of 250 ohm/cm^2 or greater were used for the transport experiment [29]. […] Medium (500 µL) containing digesta of PRPE was added to the apical side of the wells and incubated for up to 2 h. […] Samples were taken from the receiver well after 2 and 5 h. […] All samples were centrifuged at 2000× g for 15 min and the supernatants were stored at −20 °C for further analysis by LC-MS.
After thawing, samples were vortexed and filtered using 25 mm syringe filters (0.45 µm, MCE, Fisher Scientific, Ottawa, ON, Canada) and transferred to HPLC vials for LC-MS analysis. […] Phenolic compounds and metabolites were eluted using a gradient of solvent A (10 mM formic acid, pH 3.5) and B (5 mM ammonium formate solution in 100% methanol), starting with 5% B, increasing to 30% B in 5 min, 70% B in 7 min, and 100% B at 9 min. This condition was maintained for 3 min. A solvent flow rate of 1.0 mL/min was used and 20 µL of sample was injected into the LC system. […] The analyses were performed in both positive and negative modes and the data was acquired over a mass range of m/z 100–1000. […] The data were acquired and processed using Agilent Mass Hunter software version B.04.00. […] The relative abundance of the compounds was calculated relative to the quantification of benzoic acid as the reference peak, as benzoic acid was present in all the cellular compartments at the same concentration at all time points.

[2] = tested on: Caco-2 and HT29-MTX cells; design: method as in PMID 18154874; details: 1-h co-culture of Caco-2 and HT29-MTX cells; cited from earlier work
Caco-2 cell monolayer = tested on: Caco-2 cell monolayer; design: method as in PMID 12784628; details: cited from earlier work
[3] = PRPE digesta, basolateral chamber after 3 h with HepG2 cells alone (t = 5 h), relative to basolateral value at 2 h
[4] = listed as 3-hydroxyphenylacetic acid
[5] = control digesta, basolateral chamber after 3 h with HepG2 cells (t = 5 h)

## O=C(O)c1cccc(O)c1 [3-Hydroxybenzoic acid]
[1]
  Presence after human simulated intestinal digestion of PRPE: +
Caco-2 cells
  Percentage of Digesta Value, A (2 h): 50%
  Percentage of Digesta Value, B (2 h): 5%
Caco-2 cells; listed as 3-hydroxybenzoic acid
  Percentage of Digesta Value, B (2 h): 3–5%
HepG2 cells; [3]
  Percentage of Basolateral Value, B (5 h): 100%
HepG2 cells; PRPE digesta, basolateral chamber after 3 h with HepG2 cells alone (t = 5 h), relative to basolateral value at 2 h, listed as 3-hydroxybenzoic acid
  Percentage of Basolateral Value, B (5 h): unchanged

## O=C(O)Cc1cccc(O)c1 [3-Hydroxyphenylacetic acid]
[1]
  Presence after human simulated intestinal digestion of PRPE: +
Caco-2 cells
  Percentage of Digesta Value, A (2 h): 70%
  Percentage of Digesta Value, B (2 h): -
  Percentage of Control Value at 0 h, A (2 h): 100%
  Percentage of Control Value at 0 h, B (2 h): -
Caco-2 cells; [4]
  Percentage of Digesta Value, A (2 h): 65–70%
  Percentage of Digesta Value, B (2 h): not detected; also recorded: none of these three compounds were measurable
HepG2 cells; [3]
  Percentage of Basolateral Value, B (5 h): -
HepG2 cells; [5]
  Percentage of Basolateral Value, B (5 h): -

## O=C(O)CCc1cccc(O)c1 [3-Hydroxyphenylpropionic acid, 3-(3-Hydroxyphenyl)propionic acid]
[1]
  Presence after human simulated intestinal digestion of PRPE: +
Caco-2 cells
  Percentage of Digesta Value, A (2 h): 69%
  Percentage of Digesta Value, B (2 h): 4%
  Percentage of Control Value at 0 h, A (2 h): 90%
  Percentage of Control Value at 0 h, B (2 h): -
Caco-2 cells; listed as 3-hydroxyphenylpropionic acid
  Percentage of Digesta Value, B (2 h): 3–5%
HepG2 cells; PRPE digesta
  Fold increase of basolateral concentration after HepG2 incubation: 2.3 fold
HepG2 cells; [3]
  Percentage of Basolateral Value, B (5 h): 233%
HepG2 cells; PRPE digesta, basolateral chamber after 3 h with HepG2 cells alone (t = 5 h), relative to basolateral value at 2 h, listed as 3-hydroxyphenylpropionic acid
  Percentage of Basolateral Value, B (5 h): 160–370%
HepG2 cells; [5]
  Percentage of Basolateral Value, B (5 h): -

## O=C(O)c1ccccc1 [Benzoic acid]
[1]
  Presence after human simulated intestinal digestion of PRPE: +
Caco-2 cells
  Percentage of Digesta Value, A (2 h): +
  Percentage of Digesta Value, B (2 h): +
  Percentage of Control Value at 0 h, A (2 h): +
  Percentage of Control Value at 0 h, B (2 h): +
HepG2 cells; [3]
  Percentage of Basolateral Value, B (5 h): +
HepG2 cells; [5]
  Percentage of Basolateral Value, B (5 h): +

## O=C(O)C=Cc1ccccc1 [Cinnamic acid, 3-Phenylprop-2-enoic acid]
[1]
  Presence after human simulated intestinal digestion of PRPE: +

## O=C(O)/C=C/c1ccc(O)cc1 [Coumaric acid]
[1]
  Presence after human simulated intestinal digestion of PRPE: +
Caco-2 cells
  Percentage of Digesta Value, A (2 h): 68%
  Percentage of Digesta Value, B (2 h): 3%
Caco-2 cells; listed as coumaric acid
  Percentage of Digesta Value, B (2 h): 3–5%
HepG2 cells; PRPE digesta
  Fold increase of basolateral concentration after HepG2 incubation: More than a two-fold increase
HepG2 cells; [3]
  Percentage of Basolateral Value, B (5 h): 212%

## O=C(O)CCc1ccc(O)c(O)c1 [Dihydrocaffeic acid, 3-(3′,4′-Dihydroxyphenyl)propionic acid]
[1]
  Presence after human simulated intestinal digestion of PRPE: +
Caco-2 cells
  Percentage of Digesta Value, A (2 h): 67%
  Percentage of Digesta Value, B (2 h): 15%
  Percentage of Control Value at 0 h, A (2 h): 26%
  Percentage of Control Value at 0 h, B (2 h): 26%
Caco-2 cells; listed as dihydrocaffeic acid
  Percentage of Digesta Value, B (2 h): 10–15% and 10%
[2]
  Permeability across Caco-2 cells: 0.5%
HepG2 cells; PRPE digesta
  Fold increase of basolateral concentration after HepG2 incubation: three-fold increase
HepG2 cells; [3]
  Percentage of Basolateral Value, B (5 h): 338%
HepG2 cells; PRPE digesta, basolateral chamber after 3 h with HepG2 cells alone (t = 5 h), relative to basolateral value at 2 h, listed as dihydrocaffeic acid
  Percentage of Basolateral Value, B (5 h): 160–370%
HepG2 cells; [5]
  Percentage of Basolateral Value, B (5 h): 123%

## COc1cc(CCC(=O)O)ccc1O [Dihydroferulic acid, 3-(4-Hydroxy-3-methoxyphenyl)propionic acid]
[1]
  Presence after human simulated intestinal digestion of PRPE: +
Caco-2 cells
  Percentage of Digesta Value, A (2 h): 78%
  Percentage of Digesta Value, B (2 h): 10%
Caco-2 cells; listed as dihydroferulic acid
  Percentage of Digesta Value, B (2 h): 10–15% and 15%
HepG2 cells; [3]
  Percentage of Basolateral Value, B (5 h): 78%

## COc1cc(/C=C/C(=O)O)ccc1O [Ferulic acid, (E)-3-(4-Hydroxy-3-methoxy-phenyl)prop-2-enoic acid]
[1]
  Presence after human simulated intestinal digestion of PRPE: +
Caco-2 cells
  Percentage of Digesta Value, A (2 h): 90%
  Percentage of Digesta Value, B (2 h): 11%
Caco-2 cells; listed as ferulic acid
  Percentage of Digesta Value, B (2 h): 10–15%
Caco-2 cell monolayer
  Percentage transported to the basolateral side of the Caco-2 cell monolayer: 3.42%
HepG2 cells; PRPE digesta
  Fold increase of basolateral concentration after HepG2 incubation: 1.6 fold
HepG2 cells; [3]
  Percentage of Basolateral Value, B (5 h): 166%
HepG2 cells; PRPE digesta, basolateral chamber after 3 h with HepG2 cells alone (t = 5 h), relative to basolateral value at 2 h, listed as ferulic acid
  Percentage of Basolateral Value, B (5 h): 160–370%

## O=C(O)CCc1ccccc1 [Phenylpropanoic acid]
[1]
  Presence after human simulated intestinal digestion of PRPE: +
Caco-2 cells
  Percentage of Digesta Value, A (2 h): 65%
  Percentage of Digesta Value, B (2 h): -
  Percentage of Control Value at 0 h, A (2 h): 100%
  Percentage of Control Value at 0 h, B (2 h): -
Caco-2 cells; listed as phenylpropanoic acid
  Percentage of Digesta Value, A (2 h): 65–70%
  Percentage of Digesta Value, B (2 h): not detected; also recorded: none of these three compounds were measurable
HepG2 cells; [3]
  Percentage of Basolateral Value, B (5 h): -
HepG2 cells; [5]
  Percentage of Basolateral Value, B (5 h): -

## O=C(O)c1ccc(O)c(O)c1 [Protocatechuic acid, 3,4-Dihydroxybenzoic acid]
[1]
  Presence after human simulated intestinal digestion of PRPE: +

## C[C@@H]1O[C@@H](OC[C@H]2O[C@@H](Oc3c(-c4ccc(O)c(O)c4)oc4cc(O)cc(O)c4c3=O)[C@H](O)[C@@H](O)[C@@H]2O)[C@H](O)[C@H](O)[C@H]1O [Rutin, Quercetin-3-O-rutinoside]
[1]
  Presence after human simulated intestinal digestion of PRPE: +

## COc1cc(C(=O)O)ccc1O [Vanillic acid, 4-Hydroxy-3-methoxybenzoic acid]
[1]
  Presence after human simulated intestinal digestion of PRPE: +
